Results from USRE38551E1, “Anticonvulsant enantiomeric amino acid derivatives” (priority 1996, dated 2004).

Legend:
[1] = test system: maximal electroshock (MES) induced seizure; assay: maximal electroshock (MES) seizure test, mice (ip); type: in vivo; conditions: for ED50: Mus musculus, read-out: MES, ED50
Source text: (§1) Compounds were screened for anticonvulsant activity in both male albino Carthworth Farms No. 1 mice (ip route) and male albino Sprague Dawley rats [oral (po) route]. Activity was established using the electrical (maximal electroshock or MES) test. In the MES test, a drop of electrolyte solution with anesthetic (0.5% butacaine hemisulfate in 0.9% sodium chloride) was used in the eyes of the animals prior to positioning the corneal electrodes and delivery of current. […] Protection endpoints were defined as the abolition of the hind limb tonic extensor component of the induced seizure. In mice, effects of compounds on forced spontaneous motor activity were determined using the rotorod test. […] Normally under these conditions, mice maintain their balance almost indefinitely. In rats, motor impairment is assessed by observing for overt evidence of ataxia, abnormal gait and stance, and/or loss of placing response and muscle tone. In the mouse identification screening study all compounds were given at three dose levels (30, 100, 300 mg/kg) and two time periods (0.5 hours, 4 hours). Typically, in the MES seizures test one animal was tested at 30 mg/kg and 300 mg/kg, and three animals at 100 mg/kg. In the rotored toxicity test four animals were tested at 30 mg/kg, and 300 mg/kg, and eight animals at 100 mg/kg.
(§2) The quantitative determination of the median effective (ED50) and toxic doses (TD50) was conducted at previously calculated times of peak effect. Groups of at least eight animals were tested using different doses of test compound until at least two points wee determined between 100 and 0% protection and minimal motor impairment.

[2] = test system: motor impairment (rotorod test); assay: rotorod neurologic toxicity test, mice (ip); type: in vivo; conditions: for tox, TD50: mice, ip, rotorod test, at time of peak effect
Source text: as §1
(§3) The quantitative determination of the median effective (ED50) and toxic doses (TD50) was conducted at previously calculated times of peak effect. Groups of at least eight animals were tested using different doses of test compound until at least two points wee determined between 100 and 0% protection and minimal motor impairment. The dose of candidate substance required to produce the defined end-point in 50% of the animals in each test and the 95% confidence interval was calculated.

[3] = test system: maximal electroshock (MES) induced seizure; assay: maximal electroshock (MES) seizure test, rats (po); type: in vivo; conditions: rat
Source text: as §1, §2

[4] = motor impairment (ataxia, gait, stance) observation, rats (po); type: in vivo; conditions: male, Sprague Dawley, in vivo; rat, po, at time of peak effect; read-out: tox, TD50
Source text: Compounds were screened for anticonvulsant activity in both male albino Carthworth Farms No. 1 mice (ip route) and male albino Sprague Dawley rats [oral (po) route]. Activity was established using the electrical (maximal electroshock or MES) test. In the MES test, a drop of electrolyte solution with anesthetic (0.5% butacaine hemisulfate in 0.9% sodium chloride) was used in the eyes of the animals prior to positioning the corneal electrodes and delivery of current. A 60 cycle alternating current was administered for 0.2 sec. in both species, 50 mA in mice and 150 mA in rats. Protection endpoints were defined as the abolition of the hind limb tonic extensor component of the induced seizure. In mice, effects of compounds on forced spontaneous motor activity were determined using the rotorod test. […] Normally under these conditions, mice maintain their balance almost indefinitely. In rats, motor impairment is assessed by observing for overt evidence of ataxia, abnormal gait and stance, and/or loss of placing response and muscle tone. In the mouse identification screening study all compounds were given at three dose levels (30, 100, 300 mg/kg) and two time periods (0.5 hours, 4 hours). Typically, in the MES seizures test one animal was tested at 30 mg/kg and 300 mg/kg, and three animals at 100 mg/kg. In the rotored toxicity test four animals were tested at 30 mg/kg, and 300 mg/kg, and eight animals at 100 mg/kg.
as §3

[5] = test system: liver; assay: liver toxicity evaluation of D-furyl derivative, oral gavage to rats; type: in vivo
Experimental: Compound C, i.e., D-(−)-α-acetamido-N-benzyl-2-furanacetylamide was evaluated for liver toxicity using the procedures described hereinabove. More specifically, various dosages such as 25 mg/kg, 100 mg/kg, 500 mg/kg of the drug was administered by oral gavage to rats for a set period of time. The rats were housed separately. The rats were periodically viewed for mortality and moribundity. At the termination of the study, the surviving rats were anesthetized, and exsanguinated under anesthesia.

[6] = rotorod neurologic toxicity test, mice (ip); type: in vivo; conditions: male, Carthworth Farms No. 1, mouse, in vivo; mice, ip, rotorod test, at time of peak effect; read-out: tox, TD50
Source text: as §1, §3

Row | Structure (SMILES) | ED50 ([1]; ip) | PI protective index (TD50/MES ED50) ([1]; mice, ip) | tox, TD50 [2] | ED50 ([3]; po, at time of peak effect, read-out: MES, ED50) | TD50 [4] | melting point | MES, ED50 ([1]; mice, ip, at time of peak effect (hours in brackets)) | MOUSE anticonvulsant dose ED50 MES ([1]; mouse, i.p. (Table 6)) | Ratio to MES ([1]; mouse, i.p., Neurotox/MES (Table 6)) | MOUSE ED50 Neurotox ([2]; mouse, i.p., rotorod test at peak effect (Table 6)) | RAT anticonvulsant ED50 MES ([3]; oral (Table 6)) | Ratio to MES ([3]; oral, Neurotox/MES (Table 6)) | Safety Ratio daily dose; MES ([5]; rat, oral, 25 mg/kg/day × 30 days vs oral MES ED50) | safety ratio for histologic signs of liver toxicity (hepatocellular necrosis) ([5]; rats) | hepatocellular necrosis ([5]; rats, 100 and 25 mg/kg, treated for 13 weeks) | TD50 [6]
1 | COC[C@@H](NC(C)=O)C(=O)NCc1ccc(F)cc1 [Ex. 4, (R)-N-(4-Fluorobenzyl)2-Acetamido-3-Methoxypropanamide] | 4.2 mg/kg | 6.6 | 27.8 [0.25] mg/kg | 2.6 mg/kg | 125 to 250 mg/kg | 144 to 145 °C |  |  |  |  |  |  |  |  |  | 
2 | CC(=O)N[C@@H](C(=O)NCc1ccccc1)c1ccco1 [compound 6, (D)-(−)α-Acetamido-N-benzyl-2-furanacetamide] |  | >.2 | 23.8 mg/kg |  |  |  | 3.3 mg/kg | 3.3 mg/kg | 7.2 | 23.8 mg/kg | 1.97 mg/kg | 175 | 12.7 | 12.7 | hepatocellular necrosis was evident | 
3 | CC(=O)NC(CO)C(=O)NCc1ccccc1 (centres unmarked) [compound 8, N-Benzyl 2-Acetamidohydracrylamide] | 100 to 300 mg/kg |  |  |  |  | 201 to 203 °C |  |  |  |  |  |  |  |  |  | > 300 mg/kg
